≈ marks a conversion by molar mass, not a printed value.

In this assay the test system is Campylobacter pylori 8005. The experiment in a line: in vitro antimicrobial activity, agar plate dilution method (MIC). In kind it is cell-based. The settings on record: Helicobacter pylori, 48 h, Brucella Agar containing 5% horse lysed blood, 37° C., 10% carbon dioxide gas, 2 days, inoculum 10^7 cells/ml, read-out: minimal inhibitory concentration (MIC).

`COc1ccc2[nH]c([S+]([O-])Cc3ncc(C)c(OC)c3C)nc2c1` (stereo not shown) [omeprazole, 5-methoxy-2-[[(4-methoxy-3,5-dimethyl-2-pyridinyl)methyl]-sulfinyl]-1H-benzimidazole]: the MIC amounted to 0.39 µg/mL (≈ 1.13 µM).

(Values after patent publication US5093342A, “Use of omeprazole as an antimicrobial agent” (priority 1989, dated 1992).)
